Literature values as cited in US7811790B2, “Polymyxin synthetase and gene cluster thereof” (priority 2005, dated 2010).

Key:
[1] = therapeutic use
[2] = water and organic solvent
[3] = test system: antibiotics-resistant Klebsiella pneumoniae; conditions: ventriculis caused by antibiotics-resistant Klebsiella pneumoniae
[4] = test system: Pseudomonas aeruginosa having resistance against almost all antibiotics; conditions: 3 osteomyelitis patients
[5] = test system: Pseudomonas aeruginosa and Acinetobacter baumannii exhibiting resistance against the conventional antibiotics; conditions: intravenously injected, 60 patients
[6] = test system: Acinetobacter having resistance against antibiotics; conditions: meningitis caused by antibiotic-resistant Acinetobacter

## polymyxin
[1]
  induced toxicity: severe neurotoxicity and hepatotoxicity
  side effects: serious side effects such as fever, eruption and pain
[2]
  solubility: soluble in both water and an organic solvent

## polymyxin B
gram-positive bacteria
  effect on gram-positive bacteria: no effect
[3]
  outcome of treatment of ventriculis: successfully treated
Anaerobic bacteria
  effect on anaerobic bacteria: no effect
fungi
  effect on fungi: no effect

## polymyxin B sulfate
Pseudomonas aeruginosa; at the concentration of 0.01 μg/ml
  killed % of Pseudomonas aeruginosa: 88%

## polymyxin E
[4]
  outcome of treatment of osteomyelitis: improved
gram-positive bacteria
  effect on gram-positive bacteria: no effect
Pseudomonas aeruginosa; organism not restated in the sentence, follows the Pseudomonas aeruginosa sentence
  concentration showing lethal effect: 0.1 µg/mL
[5]
  patients improved: 58%
[6]
  outcome of treatment of meningitis: successfully treated
Anaerobic bacteria
  effect on anaerobic bacteria: no effect
fungi
  effect on fungi: no effect
